Data from patent EP0234113A1, “2,3-Dihydro-1H-phenalene-2-amino compounds as anti-psychotic drugs” (THE UPJOHN COMPANY, priority 1985, dated 1987).
Structures can show the parent of a compound that is named as a salt.

system: body temperature; assay: Hypothermia Test (effect on body temperature); type: in vivo, CF-1 male mice; conditions: Mus musculus, ip, 0.75 h, read-out: hypothermia, calculated ED50
Protocol: The Effect on Body Temperature (Hypothermia) Test and the Antagonism of Apomorphone-Induced Case Climbing (ACC), (Apomorphine Gnawing Test) are described on page 1398 of the publication, Journal of Medicinal Chemistry, Vol. 22, No. 11, pp. 1390-1398, in an article entitled "6-Aryl-4H-s-triazolo[4,3-a][1,4]benzodiazepines....Action" by J. B. Hester, Jr., et al.
For the tests here, the Hypothermia Test procedure was run as follows:
A group of four CF-1 male mice (18-22 g each) was injected intraperitoneally with the test compound prepared in 0.25 percent w/v methylcellulose in water solution. After 45 min, abdominal temperature of each mouse was measured using a thermister probe. A control group of four mice was treated with vehicle only and the temperature of the control group was taken in a similar manner. A compound was considered to have a significant effect on body temperature if the mean temperature in the test compound treated group deviated more than 3.5°C from the mean temperature of the parallel control group. Stimulants tend to elevate temperatures; depressants tend to lower body temperature.

| Compound | ED50 [mg/kg] |
| --- | --- |
| CCCN(CCC)C1Cc2cccc3cc(O)cc(c23)C1 (racemic) [(15), (±)2-(N,N-di-n-propylamino)-2,3-dihydro-lH-phenalen-5-ol] | 1 |

same assay, conditions: either test: hypothermic or apomorphine antagonism

| Compound | active in either the hypothermic or the apomorphine antogonism test |
| --- | --- |
| Cl.NC1Cc2cccc3cc(Cl)cc(c23)C1 (stereo not drawn) [(50), 5-chloro-2,3-dihydro-1H-phenalen-2-ylamine hydrochloride] | active |
| CCCN(CCC)C1Cc2cccc3cc(O)cc(c23)C1 (single isomer, unassigned; (+)) [(33), (+)-2-(N,N-di-n-propylamino)-2,3-dihydro-lH-phenalen-5-ol hydrobromide] | active |
| CN(C)C1(N2CCC2)Cc2cccc3cccc(c23)C1 [(11), 1-[2-(N,N-dimethylamino)-2,3-dihydro-1H-phenalen-2-yl]azetidine] | active |
| CCCN(CCC)C1Cc2cccc3cccc(c23)C1 [(53), N,N-di-n-propyl-2,3-dihydro-lH-phenalen-2-amine hydrochloride] | active |
| [2-amino-2,3-dihydro-lH-phenalen-6-yl]-a-benzyl ether maleate salt [(49)] | active |
| CNC1Cc2cccc3c(OCc4ccccc4)ccc(c23)C1 (stereo not drawn) [(41), [2-(N-methylamino)-2,3-dihydro-1H-phenalen-6-yi]-α-benzyl-ether p-toluenesulfonate salt monohydrate] | active |
| Brc1ccc2c3c(cccc13)CC(N1CCCC1)C2 (stereo not drawn) [(26), 1-[6-bromo-2,3-dihydro-lH-phenalen-2-yl]pyrrolidine] | active |
| CNC1Cc2cccc3c(C(=O)c4ccccc4)ccc(c23)C1 (stereo not drawn) [(20), [2-(N-methylamino)-2,3-dihydro-lH-phenalen-6-yl]phenone methanesulfonate salt] | active |
| CCNC1Cc2cccc3cccc(c23)C1 [(57), N-ethyl-2,3-dihydro-lH-phenalen-2-amine hydrochloride] | active |
| N,N-dimethyl-6-(2-methyl-l,3-dioxan-2-yl)-2,3-dihydro-lH- phenalen-2-amine [(8)] | active |
| CCCN(CCC)C1Cc2cccc3cc(OC(=O)c4ccccc4)cc(c23)C1 (stereo not drawn) [(45), [2-(N,N-di-n-propylamino)-2,3-dihydro-lH-phenalen-5-yl]benzoate ester hydrochloride] | active |
| CCCN(CCC)C1Cc2cccc3cc(OC(=O)Cc4ccccc4)cc(c23)C1 (stereo not drawn) [(48), [2-(N,N-di-n-propylamino)-2,3-dihydro-1H-phenalen-5-yl]-α-phenylacetate ester hydrochloride, 0.5 H2O hydrate] | active |
| CN(C)C1Cc2cccc3c(OCc4ccccc4)ccc(c23)C1 (stereo not drawn) [(22), [2-(N,N-dimethylamino)-2,3-dihydro-1H-phenalen-6-yl]benzyl ether hydrochloride] | active |
| CCCN(CCC)C1Cc2cccc3c(Br)ccc(c23)C1 (stereo not drawn) [(4)] | active |
| NC1Cc2cccc3cc(OCc4ccccc4)cc(c23)C1 (stereo not drawn) [(38), [2-amino-2,3-dihydro-lH-phenalen-5-yl]-a-benzyl ether hydrochloride] | active |
| CCCN(CCC)C1Cc2cccc3ccc(OC)c(c23)C1 (stereo not drawn) [(25), N,N-di-n-propyl-4-methoxy-2,3-dihydro-lH-phenalen-2-amine hydrochloride] | active |
| CCCNC1Cc2cccc3cccc(c23)C1 [(56), N-n-propyl-2,3-dihydro-lH-phenalen-2-amine hydrochloride] | active |
| CCCN(CCC)C1Cc2cccc3cc(O)cc(c23)C1.Cl (racemic) [(16), (±)2-(N,N-di-n-propylamino)-2,3-dihydro-1H-phenalen-5-ol hydrochloride] | active |
| CN(C)C1Cc2cccc3c(C(=O)c4ccccc4)ccc(c23)C1 (stereo not drawn) [(39), [2-(N,N-dimethylamina-2,3-dihydro-1H-phenalen-6-yl]phenone maleate salt, hydrochloride] | active |
| CCCN(CCC)C1Cc2cccc3c(O)ccc(c23)C1 (stereo not drawn) [(9), 2-(N,N-di-n-propylamino)-2,3-dihydro-lH-phenalen-6-ol hydrochloride] | active |
| CCCN(CCC)C1Cc2cccc3ccc(O)c(c23)C1 (stereo not drawn) [(28), 2-(N,N-di-n-propylamino)-2,3-dihydro-1H-phenalen-4-ol hydrobromide] | active |

| Compound | active in either the hypothermic or the apomorphine antogonism test |
| --- | --- |
| CN(C)C1Cc2cccc3c(C(=O)c4ccccc4)ccc(c23)C1 (stereo not drawn) [(19), [2-(N,N-dimethylamino)-2,3-dihydro-1H-phenalen-6-yl]phenone maleate salt] | active |
| CCCN(CCC)C1Cc2cccc3cc(O)cc(c23)C1 (single isomer, unassigned; (-)) [(34), (-)-2-(N,N-di-n-propylamino)-2,3-dihydro-lH-phenalen-5-ol hydrobromide] | active |
| COc1ccc2cccc3c2c1CC(N)C3 (stereo not drawn) [(24), 4-methoxy-2,3-dihydro-lH-phenalen-2-amine] | active |
| Brc1ccc2c3c(cccc13)CC(N1CCCCC1)C2 (stereo not drawn) [(29), 1-[6-bromo-2,3-dihydro-1H-phenalen-2-yl]piperadine] | active |
| CN(C)C1Cc2cccc3c(Br)ccc(c23)C1 (stereo not drawn) [(2), 6-Bromo-N,N-dimethyl-2,3-dihydro-lH-phenalen-2-amine hydrochloride] | active |
| CCCN(CCC)C1Cc2cccc3cc(OC(C)=O)cc(c23)C1 (stereo not drawn) [(37), [2-(N,N-di-n-propylamino)-2,3-dihydro-lH-phenalen-5-yl]acetate ester] | active |
| COc1ccc2cccc3c2c1CC(N(C)C)C3 (stereo not drawn) [(31), N,N-dimethyl-4-methoxy-2,3-dihydro-lH-phenalen-2-ylamine maleate salt] | active |
| CN(C)C1Cc2cccc3c(O)ccc(c23)C1 (stereo not drawn) [(3), 2-(N,N-dimethylamino-2,3-dihydro-lH-phenalen-6-ol hydrochloride] | active |
| 5-[2-(N,N-dimethylamino)-2,3-dihydro-1H-phenalen-2-yl]azetidine hydrochloride [(13)] | active |
| c1cc2c3c(cccc3c1)CC(N1CCC1)C2 [(54), 1-[2,3-dihydro-IH-phenalen-2-yl]azetidine succinate salt] | active |
| 1-[2-(N,N-dimethylamino)-2,3-dihydro-1H-phenalen-y-yl]-ethan-1-ol hydrochloride [(10)] | active |
| N,N-dimethyl-4-methoxy-1H-phenalen-2-ylamine hydrochloride, 0.25 H20 hydrate [(30)] | active |
| N-methyl-6-(2-methyl-l,3-dioxan-2-yl)-2,3-dihydro-lH-phena- len-2-amine maleate salt [(6)] | active |
| CCN(CC)C1Cc2cccc3cccc(c23)C1 [(55), N,N-diethyl-2,3-dihydro-lH-phenalen-2-amine hydrochloride, 0.25 H2O hydrate] | active |
| CCCN(CCC)C1Cc2cccc3cc(O)cc(c23)C1 (racemic) [(15), (±)2-(N,N-di-n-propylamino)-2,3-dihydro-lH-phenalen-5-ol] | active |
| NC1Cc2cccc3c(Br)ccc(c23)C1 (stereo not drawn) [(27), 6-bromo-2,3-dihydro-lH-phenalen-2-ylamine hydrochloride] | active |
| CN(C)C1Cc2cccc3cc(O)cc(c23)C1 (stereo not drawn) [(23), 2-(N,N-dimethylamino)-2,3-dihydro-lH-phenalen-5-ol] | active |
| CN(C)C1Cc2cccc3ccc(O)c(c23)C1 (stereo not drawn) [(36), 2-(N,N-dimethylamino)-2,3-dihydro-lH-phenalen-4-ol hydrobromide] | active |
| CCCN(CCC)C1Cc2cccc3cc(O)cc(c23)C1 (racemic) [(17), (±)2-(N,N-di-n-propylamino)-2,3-dihydro-lH-phenalen-5-ol hydrobromide salt] | active |
| CNC1Cc2cccc3c(C(C)=O)ccc(c23)C1 (stereo not drawn) [(14), N-methyl-6-acetyl-2,3-dihydro-lH-phenalen-2-amine hydrochloride] | active |
